Laboratory results taken from publication PMC6027674, “Acetylcholinesterase Inhibition and Antioxidant Activity of N-trans-Caffeoyldopamine and N-trans-Feruloyldopamine” (Scientia Pharmaceutica, 2018).
Where “and” joins values, the source holds several entries; their conditions need not be identical. Equal values may be shown once.

Assays:
[1] = Fe(II)-chelating assay (inhibition of Fe^2+–ferrozine complex formation); settings: 10 min, room temperature, 562 nm
Description: Among the transition metals, Fe^2+ ions are well-known for their significant role as a prooxidants in the lipid oxidation process and the formation of hydroxyl radicals in Fenton-type reactions. However, effective chelating agents can reduce the damage resulting from these reactions. The most important spectrophotometric method for studying chelation activity is the inhibition of the Fe^2+–ferrozine complex formation, during which ferrozine reacts quantitatively with Fe^2+ ions in the […] of a chelating agent and complex formation is disrupted. Measurement of color reduction therefore allows estimation of the metal chelating activity of the coexisting chelator. The chelating abilities on Fe^2+ by the tested compounds were estimated by the method as described by Dinis. Briefly, 0.4 mL of the tested compound was added to 0.05 mL of FeCl2 (2 mM) solution. The reaction was initiated by the addition of ferrozine (0.2 mL, 5 mM). The total volume of the systems was adjusted to 4 mL with ethanol. Then, the mixture was shaken vigorously and left at room temperature for 10 min. […] The percentage of chelating effect was calculated by using the equation below:(4) % Chelating effect = (1 − At/A0) × 100 where A0 is the absorbance of the control and At is the absorbance of the tested compound.
(§1) Regression analysis was performed to calculate the dose-response relation and IC50 values were obtained from the equations y = a ± bx.

[2] = ABTS radical cation scavenging assay; settings: 7 min, room temperature, 734 nm; mean ± SD, n = 3; read-out: ABTS^•+ Scavenge IC50
Experimental: The 2,2′-azinobis(3-ethylbenzothiazoline-6-sulphonic acid) radical cation (ABTS^•+), which absorbs at 734 nm, is formed by oxidation of the commercially available neutral species. This oxidation can be done by potassium persulphate, manganese (IV) oxide, or electrochemical methods. In the presence of a hydrogen-donating antioxidant, the […] quenches the hydrogen atom, which is followed by decolorization. In this study, the ABTS^•+ was produced by mixing 7 mM ABTS stock solution with 2.45 mM potassium persulfate and allowing the mixture to stand in a dark at room temperature for 16 h before use. Different concentrations of the tested compounds (0.1 mL) were added to 1 mL ABTS^•+ solution. The reaction mixtures were mixed thoroughly, incubated at room temperature for 7 min, and the absorbance was recorded at 734 nm. The ability to scavenge the ABTS radical cation was calculated using the following equation:(3) % ABTS radical cation scavenge = (1 − At/A0) × 100 where A0 is the absorbance of the control and At is the absorbance of the tested compound. The ABTS^•+ solution without any sample was used as a control, prepared by using the same procedure. From the percentage of the scavenging activity at different tested compounds concentrations, IC50 values were calculated and compared with those of standard L(+)-ascorbic acid solution.
(§2) All data on AChE inhibition/antioxidant activity are the average of triplicate analyses (n = 3) and the data were recorded as mean ± standard deviation. Regression analysis was performed to calculate the dose-response relation and IC50 values were obtained from the equations y = a ± bx.

[3] = Ferric-reducing antioxidant power (FRAP) assay; settings: pH 3.6, 6 min, 593 nm; mean ± SD, n = 3
Experimental: The FRAP assay is a typical electron transfer-based method that measures the reduction of (Fe^3+)-ligand complex to the intensely blue-colored ferrous (Fe^2+)-ligand complex by antioxidants. The FRAP assay is carried out under acidic pH conditions in order to maintain iron solubility and more importantly, drive electron transfer. This will increase the redox potential, causing a shift in the dominant reaction mechanism. The FRAP assay was done according to the method described by Benzie and Strain [40] with slightly modifications. The stock solutions included 300 mM acetate buffer (pH 3.6), 10 mM 2,4,6-tris(2-pyridyl)-s-triazine (TPTZ) solution in ethanol, and 20 mM FeCl3 solution in 20 mM HCl. […] An aliquot of 0.1 mL of the tested compound was allowed to react with 3.0 mL of the FRAP working solution and 0.3 mL of water. […] The results are expressed as L(+)-ascorbic acid equivalent (AAE).
as §1

[4] = DPPH free radical scavenging assay; settings: 30 min, room temperature, dark, 517 nm; mean ± SD, n = 3; read-out: DPPH^• Scavenge IC50
Description: The 2,2-diphenyl-1-pycrylhydrazyl free radical (DPPH^•) scavenging method is widely used to evaluate the free radical scavenging ability of natural antioxidants. 2,2-Diphenyl-1-pycrylhydrazyl is a stable nitrogen centered free radical, which has a violet color that changes to yellow after reduction by the process of either hydrogen atom or single electron transfer mechanism. Compounds that are able to execute this reaction can be considered antioxidants and therefore radical scavengers. In the radical form, the DPPH molecule has an absorbance of 517 nm, which disappears after the acceptance of an electron or hydrogen radical from an antioxidant compound, to become a stable diamagnetic molecule. The DPPH^• scavenging activities of the tested compounds were estimated using the method of [35] with slight modification. To 1 mL methanolic solution of DPPH^• (0.08 mM), 0.1 mL of the tested compounds were added. The resulting mixture was shaken thoroughly and allowed to stand at room temperature in the dark for 30 min, after which the absorbance of the solution was measured at 517 nm. L(+)-Ascorbic acid was used as the positive control. The negative control contained DPPH^• and methanol. The ability to scavenge DPPH radical was calculated using the equation:(2) % DPPH radical scavenge = (1 − At/A0) × 100 where A0 is the absorbance of the control and At is the absorbance of the tested compound. The DPPH^• absorbance decreases with an increase in the DPPH radical scavenging activity.
as §2

[5] = biological target: acetylcholinesterase (AChE) from Electrophorus electricus (Electrophorus electricus, UniProt O42275); assay: biochemical; settings: AChE from E. electricus; 15 min incubation at 37 °C, pH 8; mean ± SD, n = 3; read-out: AChE Inhibition IC50
[6] = read-out: Chelation ability IC50 (Fe^2+ ions)

Chain of acetylcholinesterase (AChE) from Electrophorus electricus (O42275 24-633): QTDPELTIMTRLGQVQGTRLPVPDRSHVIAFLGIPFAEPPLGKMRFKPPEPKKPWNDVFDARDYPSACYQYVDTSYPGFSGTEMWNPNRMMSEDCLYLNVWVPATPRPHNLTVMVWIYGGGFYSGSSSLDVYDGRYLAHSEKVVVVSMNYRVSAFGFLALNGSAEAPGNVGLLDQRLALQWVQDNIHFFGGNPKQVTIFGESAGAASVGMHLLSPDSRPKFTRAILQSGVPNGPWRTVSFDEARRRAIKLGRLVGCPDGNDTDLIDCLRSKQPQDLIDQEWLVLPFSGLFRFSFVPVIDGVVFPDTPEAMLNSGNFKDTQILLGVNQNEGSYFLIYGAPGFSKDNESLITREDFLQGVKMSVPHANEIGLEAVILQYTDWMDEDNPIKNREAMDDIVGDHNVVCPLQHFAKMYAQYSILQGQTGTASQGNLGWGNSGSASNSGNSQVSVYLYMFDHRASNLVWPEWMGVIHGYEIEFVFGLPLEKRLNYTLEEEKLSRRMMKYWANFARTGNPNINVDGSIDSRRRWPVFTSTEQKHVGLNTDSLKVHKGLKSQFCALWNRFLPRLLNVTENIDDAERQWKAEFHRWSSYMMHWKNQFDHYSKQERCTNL

SMILES	IC50 [1, 6] [µM]	IC50 [2] [µM]	FRAP AAE (L(+)-ascorbic acid equivalent) [3]	IC50 [4] [µM]	IC50 [5] [µM]	IC50 ([1]; read-out: Chelation of ferrous ions IC50) [µM]
O=C([O-])CN(CCN(CC(=O)[O-])CC(=O)O)CC(=O)O.[Na+].[Na+] [Na2EDTA, disodium ethylenediaminetetraacetate]	10					
O=C(O)/C=C/c1ccc(O)c(O)c1 [trans-Caffeic acid]	12900	1.19 ± 0.02	526.05 ± 12.87 μmol/mmol	18.9 ± 0.22		
O=C(/C=C/c1ccc(O)c(O)c1)NCCc1ccc(O)c(O)c1 [N-trans-Caffeoyldopamine]		0.24	822.45 μmol/mmol and 822.45 ± 13.53 μmol/mmol	5.95 ± 0.12	19.1 ± 0.83	3480
COc1cc(/C=C/C(=O)NCCc2ccc(O)c(O)c2)ccc1O [N-trans-Feruloyldopamine]	3170	0.74	661.53 ± 13.51 μmol/mmol	12.29 ± 0.04	8.52 ± 0.27	
O=C1O[C@H]([C@@H](O)CO)C(O)=C1O [L(+)-Ascorbic acid]		0.11		1.14 ± 0.03		
COc1cc(/C=C/C(=O)O)ccc1O [trans-Ferulic acid]	5060	1.62 ± 0.01		19.93 ± 0.18	20.6 ± 0.65	
